From patent US10765751B2, “pH sensitive carrier and preparation method thereof, and pH sensitive drug and pH sensitive drug composition each containing the carrier, and method for treating or preventing diseases using the same” (TERUMO KABUSHIKI KAISHA, priority 2012, dated 2020)

Experiments:
[1] = Leaching test: measurement of a leakage (leaching rate); format: biochemical; details: hydrophobic material alone, 37° C., 90 min, mean of three ± SD
Method: The leakage (leaching rate) was determined according to the method described by K. Kono et al., Bioconjugate Chem., 2008 19 1040-1048 and evaluated using an EYPC liposome including Pyranine serving as a fluorescent substance and DPX serving as a quencher.
3000 nmol of EYPC dissolved in chloroform was measured and placed in a 10 mL eggplant flask and converted to a thin film by use of a rotary evaporator (BuCHI). 500 μL of a Pyranine solution (Pyranine: 35 mM, DPX: 50 mM, MES: 25 mM, pH 7.4) was added, followed by dispersion with use of an ultrasonic irradiator (USC-J) and passage through a polycarbonate film having a pore size of 100 nm by use of an extruder to obtain a uniform particle size. Using an MES buffer (MES: 25 mM, NaCl: 125 mM, pH 7.4) and a G100 column, an outer water layer was substituted to obtain a dispersion of EYPC liposomes including the fluorescent substance. The concentration of the choline group of the phospholipid was determined by use of the phospholipid C test Wako and was adjusted by use of an MES buffer (MES: 25 mM, NaCl: 125 mM, pH 7.4) in such a way as to obtain 1.0 mmol/L of the phospholipid. […] The DOPE-Chems and DOPE-oleic acid were, respectively, measured in an acetic acid buffer (acetic acid: 25 mM, NaCl: 125 mM).
With respect to other samples, measurement at a pH of 4.0 to 3.0 was carried out by use of an acetic acid buffer.
It will be noted that the leakage was calculated in such a way that in case where the EYPC liposome dispersion alone was used, it was taken as 0% and a value obtained in case where 30 μL of a 10-fold diluted Triton-X100 was added was taken as 100%.
More particularly, the leakage was calculated according to the following equation. In the following equation, a measured fluorescence intensity is represented by L, a fluorescence intensity of a dispersion alone of EYPC liposomes including a fluorescent substance is represented by L0, and a fluorescence intensity in case where Triton-X100 was added is represented by L100. Leakage (%)=(L−L0)/(L100−L0)×100 Fusion Test: Measurement of Fusion (Membrane Fusion)

RAW cells [2] = test: Cytosolic delivery of β-gal; format: cell-based; details: 16 to 20 hours incubation, three hours post-incubation; FIG. 21
Method: Using PBS passed through a 0.22 μm filter, there was prepared a 1.4 mg/mL of β-gal solution. […] On the day before charge, the RAW cells were spread on a matsunami glass bottom dish and cultured, and the cells were rinsed with PBS immediately before charge. The culture was carried out by use of an incubator (MCO 20 AIC) set at 5% CO2 and 37° C. and a 10% FBS-containing MEM medium. After substitution with 1900 μL of a fresh 10% FBS-containing MEM medium, 100 μL of the respective samples was charged, followed by 16 to 20 hours incubation. The cells were rinsed at least three times with PBS. Thereafter, 2 mL of a fresh 10% FBS-containing MEM medium was added, following by three hours post-incubation. The cells were rinsed with PBS, followed by staining the cells with use of a β-Galactosidase Staining Kit (purchased from Takara Bio Inc.), and observing the cells through a microscope (Axiovert 200M—soft: Axio vision 3.0). The staining was carried out in accordance with the recommendation of the kit.

RAW cells [3] = test: Evaluation of cytosolic delivery using a fluorescence-labeled peptide; format: cell-based; details: 14 μg of the fluorescence-labeled peptide/well, overnight, three hours post-incubation; FIG. 19, 20
Method: OVA-257-264-Rh was chosen as a model peptide. 140 μg/ml of a fluorescence-labeled peptide solution was prepared by use of PBS passed through a 0.22 μm filter and used for the preparation of a carrier. Cells used were RAW cells, and culture was carried out by use of an incubator (MCO20AIC) set at 5% CO2 and 37° C. The RAW cells were spread on a matsunami glass bottom dish on the day before the charge of the carrier and cultured in a 10% FBS-containing MEM medium.
After rinsing the cells with PBS, the medium was substituted with 1900 μL of a fresh 10% FBS-containing MEM medium, into which 100 μL of the respective samples was charged. Incubation was continued over 16 to 20 hours and the cells were rinsed at least three times with PBS. Thereafter, 2 mL of a fresh 10% FBS-containing MEM medium was added, following by three hours post-incubation. The cells were rinsed with PBS, followed by substitution with a DMEM-without-Phenol-Red medium and observation of the cells through a fluorescence microscope Axiovert 200M—soft: Axio vision 3.0—light source: Fluo Arc

| Compound | Hydrophobic material only Leakage (%) ([1]; pH 5.0) | Hydrophobic material only Leakage (%) ([1]; pH 7.4) | staining of cells by β-gal enzymatic activity (cytosolic delivery) (RAW cells [2]) | localisation of fluorescence-labeled peptide in cells (cytosolic delivery) (RAW cells [3]) |
| --- | --- | --- | --- | --- |
| CCCCCCCCCCCC(=O)OCC [Ethyl laurate] | 11.9 ± 1.2 | 8.7 ± 0.9 | – | – |
| N[C@@H](Cc1c[nH]cn1)C(=O)O [L-Histidine, L-histidine] | 8.9 ± 0.5 | 6.7 ± 0.4 | – | – |
| sorbitan monolaurate [SPAN 20] | 10.1 ± 0.4 | 5.7 ± 0.7 | – | – |
| CC(=O)Oc1c(C)c(C)c2c(c1C)CCC(C)(CCC[C@H](C)CCC[C@H](C)CCCC(C)C)O2 (mixture of isomers) [α-Tocopherol acetate, DL-α-tocopherol acetate] | 7.0 ± 2.1 | 5.9 ± 0.2 | – | – |
| N[C@@H](Cc1ccccc1)C(=O)O [L-Phenylalanine] | 10.7 ± 0.4 | 7.9 ± 0.5 | – | – |
| CCCCCCCC/C=C\CCCCCCCC(=O)[O-].[Na+] [Oleic acid, Sodium oleate] | 76.0 ± 2.3 | 2.2 ± 0.1 | – | – |
| CCCCCCCC(=O)OCC(COC(=O)CCCCCCC)OC(=O)CCCCCCC [Tricaprylin, tricaprylin] | 9.0 ± 1.1 | 6.8 ± 0.9 | – | – |
| sorbitan stearic acid ester [SPAN 60] | 17.5 ± 0.4 | 7.9 ± 0.3 | – | – |
| CC(C)CCC[C@@H](C)[C@H]1CC[C@H]2[C@@H]3CC=C4C[C@@H](O)CC[C@]4(C)[C@H]3CC[C@]12C [Cholesterol, cholesterol] | 7.6 ± 0.5 | 4.8 ± 0.1 | – | – |
| CCCCCCCCCCCC(=O)OCC(O)CO (stereo not drawn) [Monolaurin, Glycerol monolaurate] | 5.6 ± 0.4 | 3.6 ± 0.3 | – | – |
| CCCCCCCCCCCCCCCC(=O)OCC(O)CO (stereo not drawn) [Monopalmitin, Glycerol monopalmitate] | 8.1 ± 0.7 | 7.8 ± 2.5 | – | – |
| β-D-galactosidase [β-gal alone] | – | – | not stained | – |
| CCCCCCCCCCCCO [1-Dodecanol] | 9.1 ± 0.8 | 7.9 ± 0.2 | – | – |
| Cyclodextrin | 9.0 ± 0.7 | 6.3 ± 0.6 | – | – |
| CCCCCCCCCCCCCCCCO [1-Hexadodecanol, 1-Hexadecanol] | 11.0 ± 0.5 | 9.0 ± 0.9 | – | – |
| CCCCCCCCCCCC(=O)O [Lauric acid] | 14.2 ± 0.4 | 6.2 ± 0.4 | – | – |
| CCCCCCCC/C=C\CCCCCCCC(=O)OCC(CO)OC(=O)CCCCCCC/C=C\CCCCCCCC (stereo not drawn) [Glycerol dioleate] | 7.4 ± 0.6 | 7.2 ± 0.5 | – | – |
| sorbitan palmitic acid ester [SPAN 40] | 20.8 ± 1.4 | 14.9 ± 0.8 | – | – |
| fluorescence-labeled peptide alone: Fluorescence-labeled peptide: OVA257-264-Rh | – | – | – | remained in the endosome |
| sorbitan tristearate [SPAN 65] | 13.0 ± 0.3 | 4.2 ± 0.4 | – | – |

| Compound | Hydrophobic material only Leakage (%) ([1]; pH 5.0) | Hydrophobic material only Leakage (%) ([1]; pH 7.4) | staining of cells by β-gal enzymatic activity (cytosolic delivery) (RAW cells [2]) | localisation of fluorescence-labeled peptide in cells (cytosolic delivery) (RAW cells [3]) |
| --- | --- | --- | --- | --- |
| O=C(OCc1ccccc1)c1ccccc1 [Benzyl benzoate] | 9.7 ± 0.5 | 7.3 ± 2.0 | – | – |
| CC(C)CCCC(C)CCCC(C)CCCCC(C)CCCC(C)CCCC(C)C (stereo not drawn) [Squalane, squalane] | 9.4 ± 0.5 | 7.8 ± 0.6 | – | – |
| CCCCCCCC/C=C\CCCCCCCC(=O)OCC [Ethyl oleate] | 11.2 ± 1.3 | 7.9 ± 0.2 | – | – |
| CCCCCCCCCCCCCCCC(=O)OC[C@H](O)[C@H]1OC(=O)C(O)=C1O [Ascorbyl palmitate] | 9.9 ± 1.0 | 1.7 ± 0.1 | – | – |
| Cc1c(C)c2c(c(C)c1O)CCC(C)(CCCC(C)CCCC(C)CCCC(C)C)O2 (racemic) [α-Tocopherol, DL-α-tocopherol] | 8.8 ± 0.6 | 5.4 ± 0.2 | – | – |
| CCCCO [1-Butanol] | 11.1 ± 0.5 | 8.8 ± 0.1 | – | – |
| CCCCCCCC(=O)OCC(O)CO (stereo not drawn) [Monocaprylin, Glycerol monocaprylate] | 8.5 ± 0.4 | 4.9 ± 1.8 | – | – |
| OC[C@H]1O[C@@H](O[C@H]2[C@H](O)[C@@H](O)C(O)O[C@@H]2CO)[C@H](O)[C@@H](O)[C@H]1O (stereo partly drawn) [Lactose] | 8.9 ± 0.2 | 6.1 ± 0.2 | – | – |
| CCCCCCCC/C=C\CCCCCCCC(=O)OCC(O)CO (stereo not drawn) [Monoolein, Glycerol monooleate] | 8.3 ± 0.4 | 6.3 ± 0.4 | – | – |
| CCCCCCCCCCCCCCCCCCCCO [1-Eicosanol] | 8.6 ± 0.5 | 7.6 ± 0.4 | – | – |
| CCCCCC(=O)OCC(COC(=O)CCCCC)OC(=O)CCCCC [Tricaproin, tricaproin] | 8.4 ± 0.9 | 6.9 ± 0.9 | – | – |
| CCCOC(=O)c1ccc(O)cc1 [Propyl paraoxybenzoate, propyl paraoxybenzoate] | 7.9 ± 0.1 | 5.4 ± 0.2 | – | – |
| CC(C)=CCC/C(C)=C/CC/C(C)=C/CC/C=C(\C)CC/C=C(\C)CCC=C(C)C [Squalene] | 9.0 ± 0.5 | 5.4 ± 0.4 | – | – |
| CCCCCCCCCCCCCCCCCC(=O)OCC(CO)OC(=O)CCCCCCCCCCCCCCCCC (stereo not drawn) [Glycerol distearate] | 11.0 ± 1.4 | 8.0 ± 0.2 | – | – |
| CCCCCCCCO [1-Octanol] | 11.7 ± 0.1 | 9.0 ± 0.3 | – | – |
| CCCCCCCCCCCCCCCCCC(=O)OCC(O)CO (stereo not drawn) [Monostearin, Glycerol monostearate] | 9.6 ± 0.6 | 7.9 ± 1.0 | – | – |
| sorbitan monooleate [SPAN 80] | 10.0 ± 0.7 | 5.1 ± 0.5 | – | – |
| CCCCCCCCCCCCCC(=O)OCC(O)CO (stereo not drawn) [Monomyristin, Glycerol monomyristate] | 5.4 ± 0.1 | 3.8 ± 0.3 | – | – |
| sorbitan trioleic acid ester [SPAN 85] | 17.7 ± 1.2 | 5.2 ± 0.4 | – | – |
| CCCCCCCCCC(=O)OCC(O)CO (stereo not drawn) [Monocaprin, Glycerol monocaprate] | 8.1 ± 0.2 | 4.0 ± 2.6 | – | – |
